The record followed here is US10793591B2, “Substituted nucleosides, nucleotides and analogs thereof” (priority 2012, dated 2020).

The first experiment has as its system Huh-7 cells containing the self-replicating, subgenomic HCV replicon. Briefly: HCV replicon assay (luciferase reporter). In kind it is cell-based. To be noted: Hepatitis C virus, Huh-7, 72 h. On the technique in general: A replicon is a self-replicating genome or part of one, used to study replication in cells.
In turn, `CC(C)OC(=O)[C@H](C)NP(=O)(OC[C@@]1(F)O[C@@H](n2ccc(=O)[nH]c2=O)[C@](C)(O)[C@@H]1O)Oc1ccccc1` (some centres unmarked) [Compound 2] showed an EC50 of under 1 µM.

`C[C@H](NP(=O)(OC[C@@]1(F)O[C@@H](n2ccc(=O)[nH]c2=O)[C@](C)(O)[C@@H]1O)Oc1ccccc1)C(=O)OC1CCCCC1` (some centres unmarked) [Compound 3] gave an EC50 of under 1 µM.

Consider `C[C@H](NP(=O)(OC[C@@]1(F)O[C@@H](n2cnc3c(=O)[nH]c(N)nc32)[C@](C)(O)[C@@H]1O)Oc1ccccc1)C(=O)OC1CCCCC1` (some centres unmarked) [Compound 11], for which the half-maximal effective concentration (EC50) was under 1 µM.

Consider `CCOc1nc(N)nc2c1ncn2[C@@H]1O[C@](F)(COP(=O)(N[C@@H](C)C(=O)OC2CCCCC2)Oc2ccccc2)[C@@H](O)[C@@]1(C)O` (some centres unmarked) [Compound 16], for which the EC50 was under 1 µM.

As for `CCOc1nc(N)nc2c1ncn2[C@@H]1O[C@](F)(COP(=O)(N[C@@H](C)C(=O)OCC(C)(C)C)Oc2ccccc2)[C@@H](O)[C@@]1(C)O` (some centres unmarked) [Compound 17], the EC50 was under 1 µM.

As for `CC(C)OC(=O)C(C)N[P@](=O)(OC[C@@]1(F)O[C@@H](n2ccc(=O)[nH]c2=O)[C@](C)(O)[C@@H]1O)Oc1ccccc1` (some centres unmarked) [Compound 18], the EC50 is under 1 µM.

The compound `CC(C)OC(=O)C(C)N[P@@](=O)(OC[C@@]1(F)O[C@@H](n2ccc(=O)[nH]c2=O)[C@](C)(O)[C@@H]1O)Oc1ccccc1` (some centres unmarked) [Compound 19] came in with an EC50 of under 1 µM.

Compound `CC(N[P@](=O)(OC[C@@]1(F)O[C@@H](n2ccc(=O)[nH]c2=O)[C@](C)(O)[C@@H]1O)Oc1ccccc1)C(=O)OC1CCCCC1` (some centres unmarked) [Compound 20] yielded an EC50 of under 1 µM.

Regarding `CC(N[P@@](=O)(OC[C@@]1(F)O[C@@H](n2ccc(=O)[nH]c2=O)[C@](C)(O)[C@@H]1O)Oc1ccccc1)C(=O)OC1CCCCC1` (some centres unmarked) [Compound 21], the EC50 is under 1 µM.

`C#C[C@]1(O)[C@H](n2ccc(=O)[nH]c2=O)O[C@](F)(COP(=O)(N[C@@H](C)C(=O)OC2CCCCC2)Oc2ccccc2)[C@H]1O` (some centres unmarked) [Compound 22] gave an EC50 of under 1 µM.

`CC(C)OC(=O)[C@H](C)NP(=O)(OC[C@@]1(F)O[C@@H](n2ccc(=O)[nH]c2=O)[C@](C)(O)[C@@H]1O)Oc1cccc2ccccc12` (some centres unmarked) [Compound 54] registered an EC50 of under 1 µM.

The compound `CC(C)OC(=O)[C@H](C)NP(=O)(OC[C@@]1(F)O[C@@H](n2ccc(=O)[nH]c2=O)[C@](C)(O)[C@@H]1O)Oc1ccc(Cl)cc1` (some centres unmarked) [Compound 56] registered an EC50 of under 1 µM.

`CC(=O)O[C@H]1[C@@](C)(O)[C@H](n2ccc(=O)[nH]c2=O)O[C@]1(F)COP(=O)(N[C@@H](C)C(=O)OC(C)C)Oc1ccc(Cl)cc1` (some centres unmarked) [Compound 57] came in with an EC50 of under 1 µM.

Turning to `CC(C)(C)C(=O)SCCCCOP(=O)(OCCCCSC(=O)C(C)(C)C)OC[C@@]1(F)O[C@@H](n2ccc(=O)[nH]c2=O)[C@](C)(O)[C@@H]1O` [Compound 60], the EC50 lay within 10 to 100 µM.

Regarding `CC(C)OC(=O)[C@H](C)NP(=O)(OC[C@@]1(F)O[C@@H](n2ccc(=O)[nH]c2=O)[C@](C)(Cl)[C@@H]1O)Oc1ccccc1` (some centres unmarked) [Compound 62], the EC50 is under 1 µM.

In turn, `CCOc1nc(N)nc2c1ncn2[C@@H]1O[C@](F)(COP(=O)(N[C@@H](C)C(=O)OC2CCCCC2)Oc2ccccc2)[C@@H](O)[C@@]1(C)F` (some centres unmarked) [Compound 66] showed an EC50 of under 1 µM.

The same experiment, now with this note: Hepatitis C virus, Huh-7; HCV replicon cells, 72 h, Bright-Glo luciferase; read-out: EC50.
Regarding `CCOc1nc(N)nc2c1ncn2[C@@H]1O[C@]2(F)CO[P@](=O)(OC(C)C)O[C@H]2[C@@]1(C)F` [Compound 42], the EC50 was under 1 µM.

Consider `CC(C)OC(=O)OCOP(=O)(OCOC(=O)OC(C)C)OC[C@@]1(F)O[C@@H](n2ccc(=O)[nH]c2=O)[C@](C)(F)[C@@H]1O` [Compound 61], for which the EC50 was under 1 µM.

The same experiment, now with this note: read-out: EC50.
`C#C[C@]1(O)[C@H](n2cnc3c(OCC)nc(N)nc32)O[C@](F)(CO[P@](=O)(N[C@@H](C)C(=O)OC2CCCCC2)Oc2ccccc2)[C@H]1O` [Compound 34]: the EC50 was under 1 µM.

For `C#C[C@]1(O)[C@H](n2cnc3c(OCC)nc(N)nc32)O[C@](F)(CO[P@@](=O)(N[C@@H](C)C(=O)OC2CCCCC2)Oc2ccccc2)[C@H]1O` [Compound 35], the EC50 is under 1 µM.

In general, EC50 refers to the concentration giving half of the maximal effect.
